# Test results: patent US9458106B2, “Phenyl-pyridine/pyrazine amides for the treatment of cancer” (Hoffmann-La Roche Inc., priority 2013, dated 2016)
# How the values were obtained:
# [1] = target: T1, CDK8/Cyclin C (Homo sapiens, UniProt P49336); experiment: CDK8/Cyclin C LANCE TR-FRET kinase assay; type: biochemical; settings: CDK8/Cyclin C 10 nM, ATP 24 μM, Ulight-GS peptide 80 nM, 37° C. 30 mins
# T1 construct: purchased Invitrogen PV4402
# Text: CDK8/Cyclin C LANCE TR-FRET Kinase Assay
# The biological activity of the compounds of the invention can be determined using the assay described below.
# CDK8/Cyclin C protein was obtained from Invitrogen, cat #PV4402. ULight-Glycogen Synthase (Ulight-GS) peptide with sequence PASVPPSPSLSRHSSPHQ(pS)ED, and Europium-anti-phospho Glycogen Synthase (Ser641) [Eu-anti-P-GS (Ser641)] were obtained from Perkin Elmer, cat #TRF0131-M and cat #TRF0220. Adenosine-5′-triphosphate (ATP) was obtained from Invitrogen, cat #PV3227.
# A mixture of (1) a compound of formula I, (2) substrate [Ulight-GS peptide (80 nM) and ATP (24 μM)], and (3) CDK8/Cyclin C (10 nM) in reaction buffer (50 mM Hepes, pH7.0, 10 mM MgCl2, 1 mM EGTA, 0.2 mg/mL BSA, 0.8 mM DTT) were incubated at 37° C. for 30 mins. Then, [Eu-anti-P-GS (Ser641)] (1.5 nM) was added. Following incubation at RT for 30 mins, the TR-FRET signals were detected using Envision reader (Ex 340 nm, Em 615 nm and 665 nm) from Perkin Elmer. The reactivity in percentage of inhibition or dose response was analyzed with GraphPad Prism 5 (GraphPad Software).
# [2] = tested on: AGS (gastric cancer); experiment: In vitro cell proliferation assay (CCK-8), AGS; type: cell-based; settings: Homo sapiens, AGS cells, 72 hours
# Method: (§1) In Vitro Cell Proliferation Assay
# (§2) Cells were seeded on 96-well plates at 5×10^3 cells per well and precultured for 24 hours. The cells were treated with serial diluted compounds and cultured for 72 hours. Then all media was discarded and after that, 100 μL 1:10 (v/v) Cell Counting Kit-8 (CCK-8)-culture media solution was added to the wells. Plate was developed for 2 hrs in an incubator, and the absorbance was measured at 450 nm wavelengths with SpectraMAX190 (MDS, Sunnyvale, Calif.). The inhibition rate (IR) of the tested compounds was determined with following formula: IR (%)=(ODDMSO−ODcompound)/ODDMSO×100%. The concentration corresponding to 50% IR (IC50) was determined with plot curve of IR against tested compound concentrations with SoftMax Pro.
# [3] = tested on: HCT116 (colorectal cancer); experiment: In vitro cell proliferation assay (CCK-8), HCT116; type: cell-based; settings: Homo sapiens, HCT-116, HCT116 cells, 72 hours
# Method: as §1, §2
# [4] = tested on: DLD-1 (colorectal cancer); experiment: In vitro cell proliferation assay (CCK-8), DLD-1; type: cell-based; settings: Homo sapiens, DLD-1 cells, 72 hours
# Method: as §1, §2
# T1 sequence (P49336 whole entry): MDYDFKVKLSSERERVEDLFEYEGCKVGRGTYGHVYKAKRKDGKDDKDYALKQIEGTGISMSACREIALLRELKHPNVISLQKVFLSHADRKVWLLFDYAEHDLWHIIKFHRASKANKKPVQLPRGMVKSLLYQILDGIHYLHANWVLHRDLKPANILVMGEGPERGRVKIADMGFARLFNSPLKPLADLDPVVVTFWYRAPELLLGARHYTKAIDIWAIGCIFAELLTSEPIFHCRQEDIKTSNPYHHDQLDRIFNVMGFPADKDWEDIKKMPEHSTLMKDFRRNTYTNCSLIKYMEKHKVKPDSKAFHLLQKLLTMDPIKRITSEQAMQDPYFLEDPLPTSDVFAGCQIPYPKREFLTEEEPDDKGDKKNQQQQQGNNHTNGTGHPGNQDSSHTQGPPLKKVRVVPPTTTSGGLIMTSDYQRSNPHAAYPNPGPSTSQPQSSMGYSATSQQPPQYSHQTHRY
# T1 sequence (P24863 whole entry partner): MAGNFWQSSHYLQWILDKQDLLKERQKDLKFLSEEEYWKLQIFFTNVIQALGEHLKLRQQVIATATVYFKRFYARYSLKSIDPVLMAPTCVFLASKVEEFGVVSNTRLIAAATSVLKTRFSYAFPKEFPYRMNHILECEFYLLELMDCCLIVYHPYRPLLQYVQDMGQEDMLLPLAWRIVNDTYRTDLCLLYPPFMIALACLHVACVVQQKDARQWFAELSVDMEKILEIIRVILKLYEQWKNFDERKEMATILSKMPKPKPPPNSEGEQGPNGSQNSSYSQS
IC50 [1],Structure (SMILES),other results
0.471 µM,"NC(=O)[C@@H](Nc1cncc(-c2ccc(O)c(Cl)c2)c1)c1ccccc1 [Example 4, (S)-2-[5-(3-Chloro-4-hydroxy-phenyl)-pyridin-3-ylamino]-2-phenyl-acetamide]",
0.133 µM,"Cc1ccncc1-c1cncc(NC(C(N)=O)c2ccccc2)c1 (centres unmarked) [Example 5, 2-(4′-Methyl-[3,3′]bipyridinyl-5-ylamino)-2-phenyl-acetamide]",
2.17 µM,"COc1cc(-c2cncc(NC(C(N)=O)c3ccccc3)c2)ccn1 (centres unmarked) [Example 6, 2-(2′-Methoxy-[3,4′]bipyridinyl-5-ylamino)-2-phenyl-acetamide]",
1.1 µM,"CCOc1ccc(F)c(-c2cncc(NC(C(N)=O)c3ccccc3)c2)c1 (centres unmarked) [Example 7, 2-[5-(5-Ethoxy-2-fluoro-phenyl)-pyridin-3-ylamino]-2-phenyl-acetamide]",
1.15 µM,"COc1cc(-c2cncc(NC(C(N)=O)c3ccccc3)c2)c(F)cn1 (centres unmarked) [Example 9, 2-(5′-Fluoro-2′-methoxy-[3,4′]bipyridinyl-5-ylamino)-2-phenyl-acetamide]",
1.39 µM,"NC(=O)C(Nc1cncc(-c2cncc(Cl)c2)c1)c1ccccc1 (centres unmarked) [Example 10, 2-(5′-Chloro-[3,3′]bipyridinyl-5-ylamino)-2-phenyl-acetamide]",
0.011 µM,"NC(=O)C(Nc1cncc(-c2cc(Cl)ccc2F)c1)c1ccccc1Cl (centres unmarked) [Example 14, 2-[5-(5-Chloro-2-fluoro-phenyl)-pyridin-3-ylamino]-2-(2-chloro-phenyl)-acetamide]",
0.123 µM,"NC(=O)C(Nc1cncc(-c2cc(Cl)ccc2F)c1)c1cc(F)ccc1F (centres unmarked) [Example 15, 2-[5-(5-Chloro-2-fluoro-phenyl)-pyridin-3-ylamino]-2-(2,5-difluoro-phenyl)-acetamide]",
0.0542 µM,"NC(=O)C(Nc1cncc(-c2cc(Cl)ccc2F)c1)c1ccsc1 (centres unmarked) [Example 17, 2-[5-(5-Chloro-2-fluoro-phenyl)-pyridin-3-ylamino]-2-thiophen-3-yl-acetamide]",
0.24 µM,"Cc1ccc(C(Nc2cncc(-c3cc(Cl)ccc3F)c2)C(N)=O)cc1 (centres unmarked) [Example 18, 2-[5-(5-Chloro-2-fluoro-phenyl)-pyridin-3-ylamino]-2-p-tolyl-acetamide]",
0.432 µM,"NC(=O)C(Nc1cncc(-c2cc(Cl)ccc2F)c1)c1cccc(Cl)c1 (centres unmarked) [Example 19, 2-[5-(5-Chloro-2-fluoro-phenyl)-pyridin-3-ylamino]-2-(3-chloro-phenyl)-acetamide]",
1.08 µM,"NC(=O)C(Nc1cncc(-c2cc(Cl)ccc2F)c1)c1ccc(Cl)cc1 (centres unmarked) [Example 20, 2-[5-(5-Chloro-2-fluoro-phenyl)-pyridin-3-ylamino]-2-(4-chloro-phenyl)-acetamide]",
7.74 µM,"CS(=O)(=O)NC(=O)C(Nc1cncc(-c2cc(Cl)ccc2F)c1)c1ccccc1 (centres unmarked) [Example 22, N-{2-[5-(5-Chloro-2-fluoro-phenyl)-pyridin-3-ylamino]-2-phenyl-acetyl}-methanesulfonamide]",
2.11 µM,"NC(=O)C(Nc1cncc(-c2cc(Cl)ccc2F)c1)c1ccccn1 (centres unmarked) [Example 24, 2-[5-(5-Chloro-2-fluoro-phenyl)-pyridin-3-ylamino]-2-pyridin-2-yl-acetamide]",
0.0048 µM,"NC(=O)C(Nc1cncc(-c2ccc(O)c(Cl)c2)n1)c1ccccc1 (centres unmarked) [Example 26, 2-[6-(3-Chloro-4-hydroxy-phenyl)-pyrazin-2-ylamino]-2-phenyl-acetamide]",
0.828 µM,"NC(=O)[C@@H](Nc1cncc(-c2cc(Cl)ccc2F)n1)c1ccccc1 [Example 31, (S)-2-[6-(5-Chloro-2-fluoro-phenyl)-pyrazin-2-ylamino]-2-phenyl-acetamide]",

# Second part, the compound before the results:
Structure (SMILES),IC50 [1],other results
"NC(=O)[C@H](Nc1cncc(-c2cc(Cl)ccc2F)c1)c1ccccc1 [Example 1, (R)-2-[5-(5-Chloro-2-fluoro-phenyl)-pyridin-3-ylamino]-2-phenyl-cetamide]",0.0917 µM,IC50 [2]: 2.66 µM; IC50 [3]: 2.61 µM
"NC(=O)C(Nc1cncc(-c2ccc(O)c(Cl)c2)c1)c1ccccc1 (centres unmarked) [Example 2, 2-[5-(3-Chloro-4-hydroxy-phenyl)-pyridin-3-ylamino]-2-phenyl-acetamide]",0.105 µM,
"NC(=O)[C@H](Nc1cncc(-c2ccc(O)c(Cl)c2)c1)c1ccccc1 [Example 3, (R)-2-[5-(3-Chloro-4-hydroxy-phenyl)-pyridin-3-ylamino]-2-phenyl-acetamide]",0.0071 µM,IC50 [2]: 0.517 µM; IC50 [3]: 0.74 µM; IC50 [4]: 0.604 µM
"NC(=O)C(Nc1cncc(-c2ccc(F)c(Cl)c2)c1)c1ccccc1 (centres unmarked) [Example 8, 2-[5-(3-Chloro-4-fluoro-phenyl)-pyridin-3-ylamino]-2-phenyl-acetamide]",2.34 µM,
"Cc1ccccc1C(Nc1cncc(-c2cc(Cl)ccc2F)c1)C(N)=O (centres unmarked) [Example 11, 2-[5-(5-Chloro-2-fluoro-phenyl)-pyridin-3-ylamino]-2-o-tolyl-acetamide]",0.0359 µM,
"NC(=O)C(Nc1cncc(-c2cc(Cl)ccc2F)c1)c1ccccc1F (centres unmarked) [Example 12, 2-[5-(5-Chloro-2-fluoro-phenyl)-pyridin-3-ylamino]-2-(2-fluoro-phenyl)-acetamide]",0.0385 µM,
"Cc1cccc(C(Nc2cncc(-c3cc(Cl)ccc3F)c2)C(N)=O)c1 (centres unmarked) [Example 13, 2-[5-(5-Chloro-2-fluoro-phenyl)-pyridin-3-ylamino]-2-m-tolyl-acetamide]",0.566 µM,
"COc1ccc(F)c(-c2cncc(NC(C(N)=O)c3ccccc3)c2)c1 (centres unmarked) [Example 16, 2-[5-(2-Fluoro-5-methoxy-phenyl)-pyridin-3-ylamino]-2-phenyl-acetamide]",0.264 µM,
"COc1cccc(C(Nc2cncc(-c3cc(Cl)ccc3F)c2)C(N)=O)c1 (centres unmarked) [Example 21, 2-[5-(5-Chloro-2-fluoro-phenyl)-pyridin-3-ylamino]-2-(3-methoxy-phenyl)-acetamide]",0.101 µM,
"NC(=O)C(Nc1cncc(-c2cc(Cl)c(F)cc2F)c1)c1ccccc1 (centres unmarked) [Example 23, 2-[5-(5-Chloro-2,4-difluoro-phenyl)-pyridin-3-ylamino]-2-phenyl-acetamide]",0.721 µM,
"NC(=O)C(Nc1cncc(-c2cc(Cl)ccc2F)c1)c1cccs1 (centres unmarked) [Example 25, 2-[5-(5-Chloro-2-fluoro-phenyl)-pyridin-3-ylamino]-2-thiophen-2-yl-acetamide]",0.0854 µM,
"NC(=O)[C@H](Nc1cncc(-c2ccc(O)c(Cl)c2)n1)c1ccccc1 [Example 27, (R)-2-[6-(3-Chloro-4-hydroxy-phenyl)-pyrazin-2-ylamino]-2-phenyl-acetamide]",0.0028 µM,
"NC(=O)[C@@H](Nc1cncc(-c2ccc(O)c(Cl)c2)n1)c1ccccc1 [Example 28, (S)-2-[6-(3-Chloro-4-hydroxy-phenyl)-pyrazin-2-ylamino]-2-phenyl-acetamide]",0.0329 µM,
"NC(=O)C(Nc1cncc(-c2cc(Cl)ccc2F)n1)c1ccccc1 (centres unmarked) [Example 29, 2-[6-(5-Chloro-2-fluoro-phenyl)-pyrazin-2-ylamino]-2-phenyl-acetamide]",0.123 µM,
"NC(=O)[C@H](Nc1cncc(-c2cc(Cl)ccc2F)n1)c1ccccc1 [Example 30, (R)-2-[6-(5-Chloro-2-fluoro-phenyl)-pyrazin-2-ylamino]-2-phenyl-aceamide]",0.0547 µM,
"COc1cccc(-c2cncc(NC(C(N)=O)c3ccccc3)n2)c1 (centres unmarked) [Example 32, 2-[6-(3-Methoxy-phenyl)-pyrazin-2-ylamino]-2-phenyl-acetamide]",0.43 µM,
"COc1cccc(-c2cncc(N[C@@H](C(N)=O)c3ccccc3)n2)c1 [Example 33, (R)-2-[6-(3-Methoxy-phenyl)-pyrazin-2-ylamino]-2-phenyl-acetamide]",0.567 µM,
